# Reference: PMC10933344, “A lncRNA Dleu2-encoded peptide relieves autoimmunity by facilitating Smad3-mediated Treg induction” (EMBO Reports, 2024)
# System: Foxp3 CNS1-luciferase reporter / Smad3
# Assay: Foxp3 CNS1-luciferase reporter assay in NIH/3T3 cells
# Format: cell-based, mouse
# Settings: 20 μM
# Description: Figure 4 Dleu2-17aa modulates TGF-β/Smad signaling to promote Foxp3 transcription. (A) qPCR analysis of TGF-β/Smad signaling downstream genes in CD4^+ T cells treated with Dleu2-17aa or scrPEP for 24 h and challenged with TGF-β to activate the signaling pathway (n = 3). (B) NIH/3T3 cells were transfected with a Foxp3 CNS1-luciferase reporter plasmid and a Smad3 expression vector. Subsequently, the cells were treated with either Dleu2-17aa or scrPEP. Luciferase activity fold induction was quantified (n = 3). (C) Foxp3 CNS1 region enrichment by Smad3 treated with or without Dleu2-17aa for 24 h in CD4^+ T cells was assessed by ChIP-qPCR (n = 3). (D) EMSA was performed in NIH/3T3 cell nuclear lysates using a 10 μM biotin-labeled Foxp3 probe and treated with Dleu2-17aa or scrPEP (3, 10, 30 μM). There were band shifts to a higher molecular weight and an increase in band intensity by Dleu2-17aa treatment. Data information: n indicates biological replicate. Error bars are mean ± SEM; **P < 0.01, and ***P < 0.001. Statistical analysis was by two-tailed Student’s t-test for (A–C). Source data are available online for this figure.
# NIH/3T3 cells were seeded at 5 × 10^5 cells/well in 24-well plates and transfected with 0.2 μg/well of pGL3 Foxp3 CNS1-luciferase reporter and the internal control vector pRL-TK (Promega) at a ratio of 10:1 (reporter construct: control vector) using LipofectamineTM 2000 according to the manufacturer’s protocol; For specific groups, co-transfect with pcDNA3.1-Smad3, an empty vector served as the control. After 7 h, remove the transfection medium and replace it with fresh medium containing either 20 μM Dleu2-17aa or PBS. 24 h post-transfection, luciferase activity was measured using the Dual-Luciferase® Reporter Assay System (Promega) according to the manufacturer’s protocol.
sequence,measurement,setting,value
"ARGPARRMRGGRRRRLR [scrPEP, scrambled control peptide of Dleu2-17aa]",Relative luciferase activity,"with Smad3 vector, replicate 1",2.57
same,Relative luciferase activity,"with Smad3 vector, replicate 2",2.653
same,Relative luciferase activity,"with Smad3 vector, replicate 3",2.615
same,Relative luciferase activity,"without Smad3 vector, replicate 1",0.9636
same,Relative luciferase activity,"without Smad3 vector, replicate 2",0.91
same,Relative luciferase activity,"without Smad3 vector, replicate 3",1.069
